Source: patent EP4741395A1, “NOVEL COMPOUND SENSITIVE TO NITROGEN MONOXIDE AND PHARMACEUTICAL COMPOSITION COMPRISING SAME” (Omniamed Co. Ltd, priority 2023, dated 2025)

What was measured:
[1] = tested on: splenocytes; experiment: NO scavenging activity in Concanavalin A-treated splenocytes (Griess assay); assay type: cell-based, C57BL/6 mouse; details: Mus musculus, Splenocyte, Concanavalin A 5 µg/mL, 72 hours, read-out: NO Scavenging Activity (%) (Mean±SD)
Method in brief: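 Splenocytes from 8-week-old C57BL/6 mice at 5×10^6 cells/mL in RPMI 1640/10% FBS, stimulated with Concanavalin A (5 µg/mL) plus […] test composition added at plating. After 72 h culture, remaining NO in supernatant measured by Griess assay.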

[2] = molecular target: T1, JAK 2 (Homo sapiens, UniProt O60674); experiment: JAK Human TK kinase enzymatic radiometric assay (Eurofins), JAK 2; assay type: biochemical; set-up: unit not given here; details: value close to 100 indicates low JAK activity of the compound
T1 construct: purchased Eurofins Scientific (assay service)
Excerpt: (§1) For the compounds of the Examples, JAK activity of each of the compounds was verified using the JAK Human TK Kinase Enzymatic Radiometric Kinase Profiler Assay service provided by Eurofins Scientific.
(§2) The activity was verified after inducing a reaction at the JAK 1, 2 and 3 active sites using radioactively labeled ATP.

[3] = Efficacy on collagen-induced rheumatoid arthritis (arthritis score); assay type: in vivo, DBA/1 male mice; details: FIG. 7
Method: The experimental animals were 30 8-week-old DBA/1 male mice. […] The number of normal mice was set to five in order to minimize the number of experimental animals. The group administered with Compound (1) consisted of 5 to 6 mice, a minimal number required to obtain statistically meaningful data given the limited amount of the drug.
(§3) In order to establish a rheumatoid arthritis model, 100 µL of a mixture solution in which 2 mg/mL of chick type II collagen and 1 mg/mL of Complete Freund's Adjuvant (CFA) were mixed in a ratio of 1:1 was administered intradermally to each of the mouse tails. After 19 days, 100 µL of an emulsion in which 2 mg/mL of chick type II collagen and Incomplete Freund's Adjuvant (IFA) were mixed in a ratio of 1:1 was administered intradermally to each of the mouse tails.
The test substances of Table 23 were administered orally every day according to the drug dosing period and dosing frequency. As for the rheumatoid arthritis score (arthritis score), the score of each of the four paws was quantified according to the criteria shown in the following Table 24, and the individual scores were summed to generate the final score.
The experimental animals were 31 8-week-old DBA/1 male mice. […] The number of normal mice was set to five in order to minimize the number of experimental animals. The group administered with Compound (11) consisted of 5 mice, a minimal number required to obtain statistically meaningful data given the limited amount of the drug. Each of the remaining groups consisted of 7 mice, with two extra mice added to account for experimental error.
as §3
Oral administration was conducted daily according to the dose, dosing frequency and dosing period of Table 25. Based on the criteria shown in Table 24, rheumatoid arthritis score for the four paws were quantified and summed to generate the score.

[4] = tested on: splenocytes; experiment: Inhibitory activity on cell proliferation in splenocytes (CCK-8 analysis); assay type: cell-based, C57BL/6 mouse; details: Mus musculus, Splenocyte, Concanavalin A 5 µg/mL, 72 hours, read-out: Inhibitory Activity on Cell Proliferation (%) (Mean±SD)
[5] = molecular target: T2, JAK 3 (Homo sapiens, UniProt P52333); experiment: JAK Human TK kinase enzymatic radiometric assay (Eurofins), JAK 3; assay type: biochemical; set-up: unit not given here; details: value close to 100 indicates low JAK activity of the compound
T2 construct: purchased Eurofins Scientific (assay service)
T2 sequence (P52333 1-1124): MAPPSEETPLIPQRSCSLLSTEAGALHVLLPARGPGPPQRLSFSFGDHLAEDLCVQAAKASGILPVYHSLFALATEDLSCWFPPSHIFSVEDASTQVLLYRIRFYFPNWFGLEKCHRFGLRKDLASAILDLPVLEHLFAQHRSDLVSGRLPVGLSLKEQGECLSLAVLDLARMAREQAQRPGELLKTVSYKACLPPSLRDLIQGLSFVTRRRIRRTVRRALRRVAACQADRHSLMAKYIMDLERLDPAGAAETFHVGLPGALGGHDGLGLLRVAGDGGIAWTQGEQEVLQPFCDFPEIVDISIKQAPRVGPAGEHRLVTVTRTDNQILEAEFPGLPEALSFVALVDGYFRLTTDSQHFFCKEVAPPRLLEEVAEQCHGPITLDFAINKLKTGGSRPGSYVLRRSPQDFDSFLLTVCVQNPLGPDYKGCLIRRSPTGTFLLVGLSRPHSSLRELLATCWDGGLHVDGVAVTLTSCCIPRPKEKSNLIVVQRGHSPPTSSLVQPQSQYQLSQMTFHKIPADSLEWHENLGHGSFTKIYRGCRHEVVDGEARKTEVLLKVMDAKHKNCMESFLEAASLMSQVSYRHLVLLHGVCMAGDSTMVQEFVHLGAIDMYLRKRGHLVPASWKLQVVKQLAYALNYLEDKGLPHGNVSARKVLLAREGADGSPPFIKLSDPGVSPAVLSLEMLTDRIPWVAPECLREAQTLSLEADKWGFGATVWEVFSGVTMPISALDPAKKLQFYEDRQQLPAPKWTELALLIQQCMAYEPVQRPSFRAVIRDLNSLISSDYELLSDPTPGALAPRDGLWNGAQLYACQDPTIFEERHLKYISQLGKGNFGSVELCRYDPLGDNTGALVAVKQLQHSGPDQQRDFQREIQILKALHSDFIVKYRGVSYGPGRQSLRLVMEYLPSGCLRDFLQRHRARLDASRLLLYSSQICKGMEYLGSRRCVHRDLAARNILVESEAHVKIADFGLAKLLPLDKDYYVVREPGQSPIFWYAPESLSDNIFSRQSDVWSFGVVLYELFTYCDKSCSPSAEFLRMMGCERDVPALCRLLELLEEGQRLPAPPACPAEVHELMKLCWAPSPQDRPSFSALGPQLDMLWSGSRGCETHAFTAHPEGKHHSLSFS
Excerpt: as §1, §2

[6] = tested on: Raw 264.7 cell line; experiment: NO scavenging activity in LPS-treated immune cells (Griess reagent); assay type: cell-based; details: Mus musculus, RAW264.7, Raw 264.7, LPS 500 ng/mL, 24 hours, read-out: NO Scavenging Activity (%) (Mean±SD)
[7] = molecular target: JAK 1 (Homo sapiens, UniProt P23458); experiment: JAK Human TK kinase enzymatic radiometric assay (Eurofins), JAK 1; details: value close to 100 indicates low JAK activity of the compound
[8] = tested on: IFN-γ; experiment: IFN-γ reduction activity in Concanavalin A-treated splenocytes (quantitative ELISA); assay type: cell-based, C57BL/6 mouse; details: Mus musculus, Splenocyte, Concanavalin A 5 µg/mL, 72 hours, read-out: IFN-γ Reduction Activity (%) (Mean±SD)
Method in brief: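 Splenocytes from 8-week-old C57BL/6 mice at 5×10^6 cells/mL in RPMI 1640 with 10% FBS, stimulated with Concanavalin A (5 µg/mL) plus compound added concentration-dependently. Supernatant IFN-γ measured by quantitative ELISA after 72 h.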

[9] = tested on: IL-6 (Interleukin-6); experiment: Inhibition of inflammatory cytokine secretion in LPS-treated immune cells (IL-6 sandwich ELISA); assay type: cell-based; details: Mus musculus, RAW264.7, Raw 264.7, LPS 500 ng/mL, 24 hours, read-out: IL-6 Reduction Activity (%) (Mean±SD)
Method: Raw 264.7 cell line was seeded in a 48-well plate at a density of 8×10^4 cells/well, and cultured at 37°C in a DMEM medium including 10% FBS, 100 U/mL of penicillin and 100 µg/mL of streptomycin.
The medium was cultured overnight, and then replaced with a fresh medium including 10 µM of the pharmaceutical composition sensitive to nitrogen monoxide including the compound of each of Examples 1 and 11 to 13 and 500 ng/mL of LPS, and the fresh medium was cultured again for another 24 hours.
Lastly, the supernatant was collected, and then the level of IL-6 (Interleukin-6) expression was analyzed using a Sandwich enzyme-linked immunosorbent assay (ELISA). Specifically, a standard solution and 50 µL of the diluted supernatant were introduced to each well of a well plate coated with an antibody specific to IL-6, and after binding IL-6 to the immobilized antibody, the well was washed with a washing buffer, followed by a reaction with HRP as a secondary antibody for 30 minutes at room temperature. The well was washed three times with a washing buffer, then color was developed using TMB (3,3', 5,5'-tetramethyl benzidine) as a substrate, and the reaction was stopped using 1 M sulfuric acid to measure the degree of color development at an absorbance of 450 nm.

Sequence of JAK 1 (P23458 whole entry): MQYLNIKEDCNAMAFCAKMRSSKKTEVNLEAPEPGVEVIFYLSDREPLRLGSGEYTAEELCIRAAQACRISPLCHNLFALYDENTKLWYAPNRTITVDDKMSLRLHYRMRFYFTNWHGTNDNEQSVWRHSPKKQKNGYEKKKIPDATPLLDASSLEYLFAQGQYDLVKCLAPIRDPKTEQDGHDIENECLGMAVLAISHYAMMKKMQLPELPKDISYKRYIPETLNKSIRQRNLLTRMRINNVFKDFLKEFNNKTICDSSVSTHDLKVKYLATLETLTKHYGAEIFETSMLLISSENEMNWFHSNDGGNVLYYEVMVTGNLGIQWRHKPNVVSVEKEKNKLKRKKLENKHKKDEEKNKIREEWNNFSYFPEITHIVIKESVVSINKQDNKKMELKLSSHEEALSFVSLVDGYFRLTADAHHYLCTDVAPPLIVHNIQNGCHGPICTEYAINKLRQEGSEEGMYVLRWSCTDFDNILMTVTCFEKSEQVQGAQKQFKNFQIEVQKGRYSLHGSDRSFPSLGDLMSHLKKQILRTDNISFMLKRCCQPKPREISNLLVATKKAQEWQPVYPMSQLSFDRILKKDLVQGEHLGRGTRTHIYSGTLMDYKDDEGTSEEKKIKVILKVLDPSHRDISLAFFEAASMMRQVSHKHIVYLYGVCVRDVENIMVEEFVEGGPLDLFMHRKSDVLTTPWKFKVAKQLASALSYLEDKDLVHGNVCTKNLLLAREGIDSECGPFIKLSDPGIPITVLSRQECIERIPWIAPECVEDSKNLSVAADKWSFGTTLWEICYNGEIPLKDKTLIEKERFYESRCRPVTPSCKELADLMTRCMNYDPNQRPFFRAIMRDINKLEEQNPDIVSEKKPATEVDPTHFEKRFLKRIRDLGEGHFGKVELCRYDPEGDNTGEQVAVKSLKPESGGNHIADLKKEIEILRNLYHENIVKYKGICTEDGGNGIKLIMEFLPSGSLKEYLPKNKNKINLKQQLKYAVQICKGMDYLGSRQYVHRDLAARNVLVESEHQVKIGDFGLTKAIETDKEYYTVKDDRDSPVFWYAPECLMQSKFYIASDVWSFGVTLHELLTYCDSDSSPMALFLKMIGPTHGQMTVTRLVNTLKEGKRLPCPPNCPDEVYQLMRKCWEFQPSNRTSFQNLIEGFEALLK
T1 sequence (O60674 whole entry): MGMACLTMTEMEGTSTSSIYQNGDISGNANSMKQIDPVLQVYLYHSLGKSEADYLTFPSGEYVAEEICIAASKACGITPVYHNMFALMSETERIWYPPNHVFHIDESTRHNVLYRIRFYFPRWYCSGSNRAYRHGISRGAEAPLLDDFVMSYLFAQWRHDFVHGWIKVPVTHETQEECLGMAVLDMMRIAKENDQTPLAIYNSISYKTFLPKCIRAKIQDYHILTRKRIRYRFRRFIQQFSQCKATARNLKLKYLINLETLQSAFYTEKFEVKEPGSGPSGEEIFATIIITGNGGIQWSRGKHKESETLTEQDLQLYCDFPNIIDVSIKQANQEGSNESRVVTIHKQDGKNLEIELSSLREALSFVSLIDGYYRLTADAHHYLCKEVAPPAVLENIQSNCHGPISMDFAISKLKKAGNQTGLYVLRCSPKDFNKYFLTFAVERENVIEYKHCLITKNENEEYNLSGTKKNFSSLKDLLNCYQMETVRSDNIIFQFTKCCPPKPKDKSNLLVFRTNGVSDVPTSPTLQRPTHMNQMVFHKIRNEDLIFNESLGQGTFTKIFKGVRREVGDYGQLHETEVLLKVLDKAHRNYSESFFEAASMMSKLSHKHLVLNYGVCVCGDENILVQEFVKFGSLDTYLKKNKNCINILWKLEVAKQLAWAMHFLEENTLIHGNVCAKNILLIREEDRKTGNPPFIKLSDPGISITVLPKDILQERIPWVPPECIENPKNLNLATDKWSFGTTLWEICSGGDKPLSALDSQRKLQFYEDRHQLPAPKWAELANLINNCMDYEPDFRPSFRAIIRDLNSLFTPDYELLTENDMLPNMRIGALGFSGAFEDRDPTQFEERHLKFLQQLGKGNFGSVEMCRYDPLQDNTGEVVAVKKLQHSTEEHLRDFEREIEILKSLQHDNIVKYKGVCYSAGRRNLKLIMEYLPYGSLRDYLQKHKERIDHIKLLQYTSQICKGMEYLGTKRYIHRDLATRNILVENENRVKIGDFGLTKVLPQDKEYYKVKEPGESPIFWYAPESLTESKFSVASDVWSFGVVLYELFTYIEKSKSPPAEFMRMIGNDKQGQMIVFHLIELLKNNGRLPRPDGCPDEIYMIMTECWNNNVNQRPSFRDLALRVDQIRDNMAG

Row | SMILES | activity at 10 µM [1] | JAK 2 Activity ([2]; 0.1 nM) | JAK 2 Activity ([2]; 1 nM) | JAK 2 Activity ([2]; 10 nM) | JAK 2 Activity ([2]; 100 nM) | rheumatoid arthritis-alleviating efficacy compared with tofacitinib ([3]; 20 mg/kg oral once daily (QD) vs tofacitinib 10 mg/kg BID, entire 40-day period) | rheumatoid arthritis-alleviating efficacy (arthritis score), statistics ([3]; 20 mg/kg oral once daily (QD)) | inhibition at 10 µM [4] | JAK 3 Activity ([5]; 0.1 nM) | JAK 3 Activity ([5]; 1 nM) | JAK 3 Activity ([5]; 10 nM) | JAK 3 Activity ([5]; 100 nM) | activity at 10 µM [6] | JAK 1 Activity ([7]; 0.1 nM) | JAK 1 Activity ([7]; 1 nM) | JAK 1 Activity ([7]; 10 nM) | JAK 1 Activity ([7]; 100 nM) | activity at 10 µM [8] | activity at 10 µM [9]
1 | C[C@@H]1CCN(C(=O)CC#N)C[C@@H]1N(C)c1ncnc2c1ccn2C(=O)N(C(=O)Nc1ccccc1N)c1ccccc1N [Example 11, N-(2-aminophenyl)-N-((2-aminophenyl)carbamoyl)-4-(((3R,4R)-1-(2-cyanoacetyl)-4-methylpiperidin-3-yl)(methyl)amino)-7H-pyrrolo[2,3-d]pyrimidine-7-carboxamide] | 67.7 ± 0.84% | 91 | 99 | 89 | 98 | alleviating efficacy comparable to that of tofacitinib | no statistical differences were verified | 49.7 ± 3.78% | 103 | 103 | 98 | 94 | 48.7 ± 0.01% | 108 | 103 | 105 | 101 | 57.6 ± 15.5% | 
2 | COc1ccc(NC(=O)N(C(=O)n2ccc3c(N(C)[C@H]4CN(C(=O)CC#N)CC[C@H]4C)ncnc32)c2ccc(OC)cc2N)c(N)c1 [Example 13, N-(2-amino-4-methoxyphenyl)-N-((2-amino-4-methoxyphenyl)carbamoyl)-4-(((3R,4R)-1-(2-cyanoacetyl)-4-methylpiperidin-3-yl) (methyl)amino)-7H-pyrrolo[2,3-d]pyrimidine-7-carboxamide] | 66.9 ± 5.06% | 120 | 107 | 102 | 104 |  |  | 16.1 ± 2.7% | 113 | 109 | 112 | 92 | 34.7 ± 0.28% | 110 | 113 | 106 | 89 | 89.7 ± 0.57% | 63.1 ± 1.23%
3 | Cc1ccc(NC(=O)N(C(=O)n2ccc3c(N(C)[C@H]4CN(C(=O)CC#N)CC[C@H]4C)ncnc32)c2ccc(C)cc2N)c(N)c1 [Example 12, N-(2-amino-4-methylphenyl)-N-((2-amino-4-methylphenyl)carbamoyl)-4-(((3R,4R)-1-(2-cyanoacetyl)-4-methylpiperidin-3-yl) (methyl)amino)-7H-pyrrolo[2,3-d]pyrimidine-7-carboxamide] | 64.6 ± 3.65% | 108 | 111 | 102 | 92 |  |  | 64 ± 6.17% | 114 | 107 | 111 | 88 | 31.7 ± 0.15% | 109 | 110 | 103 | 81 | 97 ± 0.05% | 61.7 ± 1.85%
